Measurements from ChEMBL document CHEMBL1138077, “Arylpiperazines with N-acylated amino acids as 5-HT1A receptor ligands” (Bioorg Med Chem Lett, 2006).

Biological target: T1, 5-hydroxytryptamine receptor 1A (Homo sapiens, UniProt P08908)
T1 sequence (P08908 whole entry): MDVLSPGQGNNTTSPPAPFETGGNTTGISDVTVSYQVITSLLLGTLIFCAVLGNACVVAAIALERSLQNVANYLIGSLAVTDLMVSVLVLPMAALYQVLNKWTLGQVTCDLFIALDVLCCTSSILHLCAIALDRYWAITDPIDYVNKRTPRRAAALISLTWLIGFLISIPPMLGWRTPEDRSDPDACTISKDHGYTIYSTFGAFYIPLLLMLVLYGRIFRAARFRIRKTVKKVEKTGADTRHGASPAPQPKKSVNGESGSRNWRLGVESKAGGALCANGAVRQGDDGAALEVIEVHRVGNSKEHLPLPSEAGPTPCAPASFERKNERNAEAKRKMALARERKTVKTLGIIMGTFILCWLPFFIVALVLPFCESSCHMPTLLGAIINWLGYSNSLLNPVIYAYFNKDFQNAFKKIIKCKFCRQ
Assay: Affinity for 5HT1A receptor

Row | Ki | Compound
1 | 17 nM | COc1ccccc1N1CCN(CCCCN2C(=O)C[C@@H](NC(=O)C3CCCCC3)C2=O)CC1
2 | 9 nM | COc1ccccc1N1CCN(CCCCN2C(=O)C[C@@H](NC(=O)C34CC5CC(CC(C5)C3)C4)C2=O)CC1
3 | 50 nM | COc1ccccc1N1CCN(CCCCN2C(=O)C[C@H](NC(=O)c3ccccc3)C2=O)CC1
4 | 12 nM | COc1ccccc1N1CCN(CCCCNC(=O)[C@@H]2CCCN2C(=O)CC2CC3CCC2C3)CC1 (some centres undefined)
5 | 40 nM | COc1ccccc1N1CCN(CCCN2C(=O)C[C@H](NC(=O)CC3CC4CCC3C4)C2=O)CC1 (some centres undefined)
6 | 69 nM | COc1ccccc1N1CCN(CCCCN2C(=O)C[C@H](NC(C)=O)C2=O)CC1
7 | 29 nM | COc1ccccc1N1CCN(CCCCN2C(=O)C[C@H](NC(=O)C3CCCCC3)C2=O)CC1
8 | 17 nM | COc1ccccc1N1CCN(CCCCNC(=O)[C@@H]2CCC(=O)N2C(=O)C2CCCCC2)CC1
9 | 18 nM | COc1ccccc1N1CCN(CCCCN2C(=O)C[C@H](NC(=O)CC3CC4CCC3C4)C2=O)CC1 (some centres undefined)
10 | 4 nM | COc1ccccc1N1CCN(CCCCNC(=O)[C@@H]2CCCN2C(=O)C23CC4CC(CC(C4)C2)C3)CC1
11 | 15 nM | COc1ccccc1N1CCN(CCCCN2C(=O)C[C@H](NC(=O)C34CC5CC(CC(C5)C3)C4)C2=O)CC1
12 | 17 nM | COc1ccccc1N1CCN(CCCCN2C(=O)C[C@@H](NC(=O)CC3CC4CCC3C4)C2=O)CC1 (stereo in doubt; 9'{5,5})
13 | 25 nM | COc1ccccc1N1CCN(CCCCNC(=O)[C@H]2CCCN2C(=O)C23CC4CC(CC(C4)C2)C3)CC1
14 | 260 nM | COc1ccccc1N1CCN(CCCN2C(=O)C[C@H](NC(=O)c3ccccc3)C2=O)CC1
15 | 170 nM | COc1ccccc1N1CCN(CCCN2C(=O)C[C@H](NC(=O)C3CCCC3)C2=O)CC1
16 | 12 nM | COc1ccccc1N1CCN(CCCCNC(=O)[C@@H]2CCC(=O)N2C(=O)CC2CC3CCC2C3)CC1 (some centres undefined)
17 | 17 nM | COc1ccccc1N1CCN(CCCCNC(=O)[C@H]2CCCN2C(=O)CC2CC3CCC2C3)CC1 (some centres undefined)
18 | 24 nM | COc1ccccc1N1CCN(CCCCNC(=O)[C@H](CC(N)=O)NC(=O)C2CCCCC2)CC1
19 | 480 nM | COc1ccccc1N1CCN(CCCN2C(=O)C[C@H](NC(C)=O)C2=O)CC1
20 | 27 nM | COc1ccccc1N1CCN(CCCCNC(=O)[C@@H]2CCCN2C(=O)C2CCCCC2)CC1
21 | 40 nM | COc1ccccc1N1CCN(CCCCN2C(=O)C[C@H](NC(=O)C3CCCC3)C2=O)CC1
22 | 11 nM | COc1ccccc1N1CCN(CCCCNC(=O)[C@H](CC(N)=O)NC(=O)CC2CC3CCC2C3)CC1 (some centres undefined)
23 | 63 nM | COc1ccccc1N1CCN(CCCN2C(=O)C[C@H](NC(=O)C34CC5CC(CC(C5)C3)C4)C2=O)CC1
24 | 230 nM | COc1ccccc1N1CCN(CCCN2C(=O)C[C@H](NC(=O)C3CCCCC3)C2=O)CC1
